Laboratory results taken from patent US20180369195A1, “COMBINATION THERAPY FOR TREATMENT OF MELANOMA” (The Regents of the University of California, priority 2015, published 2018).
“Also recorded” adds a separate entry of the source.

What was measured:
Assay type in all cases: cell-based, human
SK-MEL-2 cells = assay: CCK-8 proliferation assay, SK-MEL-2; settings: for antiproliferation in wild-type BRAF cells: 48 hours
Procedure: […] Cells were treated with 20 μM 1-benzyl I3C every 24 hours for 72 hours and harvested at 24, 48 and 72 hours for western blot and flow cytometric analysis. Cells were treated with 20 μM LiCl or 10 μM BIO for 48 hours before harvesting them for western blots.
(§1) Subsequently inhibition of proliferation was assessed using Cell counting Kit-8 (Dojindo) as per the protocol in the user's manual. Briefly, 50 μl of the CCK-8 solution was added to each well along with 450 μl media and incubated for 2-3 hours. The absorbance was read at 450 nm and % inhibition was calculated for each condition standardizing DMSO to zero using the formula: [(100−Value of treatment/Value of DMSO treated control)×100]

MITF-M = MITF-M protein levels in cultured melanoma cells (western blot, immunofluorescence)
Procedure: Western Blot analyses of samples electrophoretically fractionated on 12% acrylamide gels were carried out as previously described (Wagle et al., J. Clin. Oncol. 2011. 29(22):3085-3096; Nguyen et al., Chem. Biol. Interact. 2010. 186(3):255-266). Enhanced chemiluminescence (ECL) Lightening reagents were used to visualize the primary antibody bound protein bands in nitrocellulose membranes and the results captured on ECL Autoradiography Film (GE Healthcare, Piscataway, N.J.). The western blots employed the following primary antibodies: mouse anti-MITF-M (Thermo-scientific), mouse anti-HSP 90 (BD Biosciences), mouse anti-CDK2, rabbit anti-CDK4, rabbit anti-CDK-6, mouse anti-rabbit BRAF, goat anti-LEF-1, rabbit anti-AXIN, mouse anti-BCL2, (Santa Cruz), rabbit anti-P21, mouse anti-Cyclin D1, rabbit anti-MEK-p, rabbit anti-MEK1/2, rabbit anti-GSK3β rabbit anti-LRP6, rabbit anti-LRP6-phospho (Cell signaling), mouse anti-β-catenin (Invitrogen).

DM738 melanoma cells = assay: CCK-8 proliferation assay, DM738
Procedure: (§2) The same treatment regime was repeated on multiple melanoma cell lines with 20 μM 1-benzyl I3C and 200 μM I3C for 48 hours to compare the relative sensitivities of the different cell lines with distinct mutation profiles to 1-benzyl I3C and I3C. Cells were treated with 20 μM 1-benzyl I3C every 24 hours for 72 hours and harvested at 24, 48 and 72 hours for western blot and flow cytometric analysis. Cells were treated with 20 μM LiCl or 10 μM BIO for 48 hours before harvesting them for western blots.
(§3) To study the effect of I3C, cells were treated with or without 200 μM I3C every 24 hours for 72 hours and harvested at 24, 48 and 72 hours for western blot and flow cytometric analysis.
as §1

G-361 melanoma cells = assay: CCK-8 proliferation assay, G-361
Procedure: as §2, §3, §1

MITF-M promoter = MITF-M promoter luciferase reporter assay; settings: G361 cells, 24 hours
Procedure: G361 Melanoma cells were cultured to approximately 80% confluency in 6 well adherent culture plates in triplicates for each experimental condition for 24 hours. The cells were then transiently transfected with either a wild-type pGL2-pMITF-333/+120-luciferase reporter plasmid or a similar plasmid with the LEF-1/TCF binding site mutated at −199. pGL2-pMITF-333/+120-ΔLEF-1-luciferase, (ALEF-1) was generated using the following primers: LEF-1 forward, 5′-[…]-3′ (SEQ ID NO:5) and LEF-1 reverse, 5′-[…]-3′ (SEQ ID NO:6).
PCR conditions used were as follows: 30 s hotstart at 95° C., 30 s at 95° C., 1 min at 55° C., 8 min at 68° C. for 16 cycles. Mutagenesis was performed using QuickChange II kit (Aligent) per the manufacturer's instructions. PCR products were extracted and purified using QIAquick Gel Extraction Kit (Qiagen). Sequence was confirmed by automated DNA sequencing (University of California Berkeley Sequencing Facility). […] 20 μl of supernatant from each sample was combined with 100 μl luciferase substrate (Promega) and emitted fluorescence was measured using luminometer, Lumat LB 9507 (EG&G Berthold) and the relative light units (RLU) were recorded. The RLU/μg for each sample was calculated by dividing the data obtained with their specific protein concentration determined by a Bradford assay using 1× BioRad Protein Assay reagent and measuring O.D at 595 nm.

MITF-M transcript = assay: RT-PCR analysis of MITF-M transcripts; settings: for MITF-M transcript levels: 200 μM I3C, 72 hour time course
Procedure: Total RNA was extracted from harvested cells using the RNeasy extraction kit for mammalian cells (obtained from Qiagen, Hercules, Calif.) and spectrophotometrically quantified by absorbance at 260 nm. Reverse transcription (RT) reactions were carried out using RT-MMLV reverse transcriptase (Invitrogen, Eugene, Oreg.) and the cDNA was used for polymerase chain reaction (PCR) reactions using 10 pM of the following primers: MITF-M forward 5′ CCGTCTCTCACTGGATTGGT 3′ (SEQ ID NO:1), MITF-M Reverse 5′ TACTTGGTGGGGTTTTCGAG 3′ (SEQ ID NO:2) GAPDH forward, […] (SEQ ID NO:3) and reverse, […] (SEQ ID NO:4). PCR conditions were as follows: 30 s at 94° C., 30 s at 55° C. and 30 s at 72° C. for 28 cycles. PCR products were electrophoretically fractionated in 1.5% agarose gels containing 0.01% Gel Red (Biotium) for DNA staining along with 1 kb plus DNA ladder (Thermo Scientific) and further visualized by a UV transilluminator.

[1] = 200 μM I3C, 72 hours, BRAF-V600E

`OCc1cn(Cc2ccccc2)c2ccccc12` [1-benzyl I3C, 1-benzyl indole-3-carbinol] was tested, and the “antiproliferation in wild-type BRAF cells” value (SK-MEL-2 cells) was “showed antiproliferation”, the “MITF-M protein levels (western blot)” value (MITF-M; G361 and DM738 cells, 1-benzyl I3C, 24, 48, 72 hours) was “significant downregulation of MITF-M” and the “MITF-M protein levels (western blot)” value (MITF-M; SK-MEL-2 cells (WT BRAF), 1-benzyl I3C, 24, 48, 72 hours) was “significant inhibitory effect on MITF-M protein levels”. For the same molecule, the “fold lower concentration than I3C” value (DM738 melanoma cells; 48 hours) was 10-20 fold, the “optimum concentration for antiproliferation” value (shortened to “optimum concentration”) (DM738 melanoma cells; 48 hours) was 10 to 20 µM and the “antiproliferation compared with I3C” value (DM738 melanoma cells; varying doses, 48 hours) was “significantly greater antiproliferation than I3C”. The “fold lower concentration than I3C” value (G-361 melanoma cells; 48 hours) was 10-20 fold, the “optimum concentration” value (G-361 melanoma cells; 48 hours) was 10 to 20 µM and the “fold lower concentration than I3C” value (G-361 melanoma cells; 48 hours, listed as 1-Benzyl I3C) was over 10 fold. For the same molecule, the “antiproliferation compared with I3C” value (G-361 melanoma cells; varying doses, 48 hours) was “significantly greater antiproliferation than I3C”, the “MITF-M promoter activity (luciferase reporter, WT)” value (MITF-M promoter; 20 μM 1-benzyl I3C) was “Luciferase activity was significantly abrogated” and the MITF-M transcript level (MITF-M transcript; G-361, DM738, SK-MEL-2 cells, 1-benzyl I3C) was “concomitant inhibition of MITF-M transcript level”.

`OCc1c[nH]c2ccccc12` [I3C, indole-3-carbinol] was tested, and the “sensitivity to anti-proliferative effects” value (“sensitivity” below) (SK-MEL-2 cells; 200 μM I3C, 72 hours, wild type BRAF) was “significantly less sensitive”, the “antiproliferation in wild-type BRAF cells” value (SK-MEL-2 cells) was “ineffective” and the “MITF-M protein levels (western blot)” value (MITF-M; G-361 and DM738 cells, varying concentrations of I3C, 48 hours) was “strongly down-regulated MITF-M levels”. The “MITF-M protein levels (western blot)” value (MITF-M; G-361 cells, 48 hours, 200 μM I3C, 10 μM Vemurafenib or 10 μM U0126) was “down regulated”, the “MITF-M protein levels (western blot)” value (MITF-M; SK-MEL-2 cells (wild type BRAF), I3C) was “expressed high levels of MITF-M protein at all concentrations of I3C; also recorded: no downregulation of MITF-M levels” and the “sensitivity” value (DM738 melanoma cells; [1]) was “Most sensitive”. The “optimum concentration” value (DM738 melanoma cells; 48 hours) was 200 to 300 µM, the “sensitivity” value (G-361 melanoma cells; [1]) was “Most sensitive” and the proliferative arrest (G-361 melanoma cells; 200 μM I3C, submaximal 24 hours, empty vector transfected or untransfected cells) was 60%. The “optimum concentration” value (G-361 melanoma cells; 48 hours) was 200 to 300 µM, the “MITF-M promoter activity (−333/+120 luciferase reporter, WT)” value (MITF-M promoter; 200 μM I3C) was “strongly down regulated MITF-M promoter activity” and the MITF-M transcript levels (MITF-M transcript; G-361 and DM738 cells) was “strongly down regulated MITF-M transcript levels”. For the same molecule, the MITF-M transcript levels (MITF-M transcript; SK-MEL-2 cells) was “modest increase in MITF-M transcript levels”.
